Measured values as given in US11412735B2, “Pre-emergent herbicide” (W. Neudorff GMBH KG, priority 2016, dated 2022).

Columns and labels:
Assay type in all cases: in vivo
[1] = system: grass (lawn), perennial rye grass; experiment: Grass phytotoxicity / selective herbicide assay (Example 4)
Description: The “selective herbicide assay” comprises:
applying an amount of a composition (or the components thereof) to a target area comprising pre-emergent undesired vegetation and desired vegetation; and
following application (e.g. after at least 7, 14 or 21 days from application) assessing separately undesired vegetation emergence and desired vegetation survival visually using a percentage rating scale from 0% (no undesired vegetation emergence/no desired vegetation survival) to 100% (complete undesired vegetation emergence/complete desired vegetation survival).
(§1) Dry FeHEDTA (micro-granular; Dissolvine H—Fe-13) was purchased from the company AkzoNobel. Corn gluten meal (Amaizeingly Green; N—P—K 10-0-0) and the mustard seed meal (Pescadero Gold; N—P—K 4.5-1.5-1.15) were purchased from AgGlobal (155, Gordon Baker Road, Suite 402,Toronto, ON M2H 3N7, Canada. www.buyagglobal.com) and Farm Fuel Inc (275 Coward Rd, Watsonville, Calif. 95076, USA. www.farmfuelinc.com), respectively. The corn gluten meal and mustard seed meal arrived in pellet form, but were ground and sieved through a mesh (sieve opening size 850 μm) before use to obtain a particle size of ≤850 μm. FeHEDTA (4.8%) was mixed with 1% of drying agent (MICRO-CEL® E) and then mixed with fertilizer seed meal (corn gluten meal or mustard seed meal) (94.2%) and blended thoroughly until the formulation became homogeneous. The application rate was 100 g/m^2 for the combined treatment (94.2 g/m^2 for FSM and 4.8 g/m^2 for FeHEDTA), 4.8 g/m^2 for FeHEDTA treatment and 100 g/m^2 for FSM treatment. In the formulation, the respective FSM was simply blended with transition metal chelate and with other ingredients if applicable. Samples were usually prepared within 48 hours of treatment. All tests were done in the greenhouse.
(§2) Pots 4″ in size were filled with wetted potting media, grass (lawn) seeds (perennial rye grass) were spread until soil was completely covered with grass seeds (5 g/pot) and kept for 1 month until grass was grown. […] Number of emerged seedlings in each pot was recorded 14 days after application.

dandelion seeds [2] = experiment: Greenhouse dandelion seed germination test, application on soil (Examples 1-3); conditions: soil pots; for Weed emergence suppression assay score: untreated = 0%
Description: (§3) The “weed emergence suppression assay” comprises:
(§4) applying an amount of a composition or the components thereof to a target area comprising pre-emergent undesired vegetation; and following application (e.g. after at least 7, 14 or 21 days from application) assessing emergence visually using a percentage rating scale from 100% (no undesired vegetation emergence) to 0% (complete undesired vegetation emergence=untreated control).
as §1
Pots 4″ in size were filled with wetted potting media and dandelion seeds were spread (0.2 g of seeds/four pots in examples 1 and 2 and 0.25 g/4 pots in example 3) evenly over each pot and lightly watered 3 hrs before treating. Seeded pots were covered with a thin layer of potting soil and treatments were applied after seeding (e.g. just after seeding). Each treatment consisted with 4 replicates. All treatments were lightly watered as needed until the seedlings emerged. Number of emerged seedlings in each pot was recorded 7 or 21 days after treatment application.

dandelion seeds [3] = experiment: Greenhouse dandelion seed germination (in grass) test (Example 4); conditions: dandelion seeded in grass pots
Description: as §3, §4
Dry FeHEDTA (micro-granular; Dissolvine H—Fe-13) was purchased from the company AkzoNobel. Corn gluten meal (Amaizeingly Green; N—P—K 10-0-0) and the mustard seed meal (Pescadero Gold; N—P—K 4.5-1.5-1.15) were purchased from AgGlobal (155, Gordon Baker Road, Suite 402,Toronto, ON M2H 3N7, Canada. www.buyagglobal.com) and Farm Fuel Inc (275 Coward Rd, Watsonville, Calif. 95076, USA. www.farmfuelinc.com), respectively. The corn gluten meal and mustard seed meal arrived in pellet form, but were ground and sieved through a mesh (sieve opening size 850 μm) before use to obtain a particle size of ≤850 μm. […]
as §2

O=C([O-])CN(CCO)CCN(CC(=O)[O-])CC(=O)[O-].[Fe+3] [Dry FeHEDTA (B), FeHEDTA]
Selective herbicide assay score ([1]; score on desired vegetation (grass)): 0% | Grass phytotoxicty, 7 days after treatment ([1]; visual rating of grass damage, 7 days after treatment): 0 | Grass phytotoxicty, 14 days after treatment ([1]; visual rating of grass damage, 14 days after treatment): 0 | Seedling emergence: No of seedlings (21 days after application) (dandelion seeds [2]; Example 1, 21 days after application, 100 g/m^2 combined or FSM, 4.8 g/m^2 FeHEDTA, untreated 42): 44 | Weed emergence suppression assay score (dandelion seeds [2]; Example 1, 21 days after application): −4.76% | Seedling emergence: No of seedlings (21 days after application) (dandelion seeds [2]; Example 2, 21 days after application, 100 g/m^2 combined or FSM, 4.8 g/m^2 FeHEDTA, untreated 60): 76 | Weed emergence suppression assay score (dandelion seeds [2]; Example 2, 21 days after application): −26.66% | Seedling emergence: No of seedlings 7 days after application (dandelion seeds [2]; Example 3, 7 days after application, 100 g/m^2 combined or FSM, 4.8 g/m^2 FeHEDTA, untreated 134): 59 | Weed emergence suppression assay score (dandelion seeds [2]; Example 3, 7 days after application): 55.07% | Weed emergence suppression assay score (dandelion seeds [3]; 14 days after application, untreated = 0%): 2.63% | Weed (dandelion) Seedling emergence: No of dandelion seedlings (14 days after application) (dandelion seeds [3]; untreated 76): 74
